Assay [1] deals with A08 (DNA, aptamer) AGCCTCGTCTGTTCTCCCGGCAGTGTGGGCGAATCTATGCGTACCGTTCGATATCGTGGGGAAGACAAGCAGACGT
Description: fluorescence enhancement at 520 nm. The conditions noted are these: 137 mM NaCl, 2.7 mM KCl; 10 mM Na2HPO4, 2 mM KH2PO4, pH 7.4; excitation 497 nm.

In assay [2] the test system is A08 minimer (DNA, aptamer) GGCAGTGTGGGCGAATCTATGCGTACCGTTCGATATCGTG
Briefly: fluorescence enhancement at 520 nm. To be noted: 137 mM NaCl, 2.7 mM KCl; 10 mM Na2HPO4, 2 mM KH2PO4, pH 7.4; excitation 497 nm.

Assay [3] has as its system Non-specific control (DNA, single strand) AGCACGTTGGTAGGTCGGTTTGGGTTTCGTGC
Briefly: fluorescence enhancement at 520 nm. To be noted: 137 mM NaCl, 2.7 mM KCl; 10 mM Na2HPO4, 2 mM KH2PO4, pH 7.4; excitation 497 nm.

Assay [4] relates to B08 (DNA, aptamer) AGCCTCGTCTGTTCTCCCGGCGCATGATCATTCGGTGGGTAAGGTGGTGGTAACGTTGGGGAAGACAAGCAGACGT
Description: fluorescence enhancement at 520 nm. The conditions noted are these: 137 mM NaCl, 2.7 mM KCl; 10 mM Na2HPO4, 2 mM KH2PO4, pH 7.4; excitation 497 nm.

Assay [5] deals with A08 minimer (DNA, aptamer) GGCAGTGTGGGCGAATCTATGCGTACCGTTCGATATCGTG
Briefly: SYBR Green I displacement fluorescence. To be noted: 137 mM NaCl, 2.7 mM KCl, 10 mM Na2HPO4, 2 mM KH2PO4, pH 7.4, tracer SYBR Green I.

In assay [6] the test system is B08 (DNA, aptamer) AGCCTCGTCTGTTCTCCCGGCGCATGATCATTCGGTGGGTAAGGTGGTGGTAACGTTGGGGAAGACAAGCAGACGT
Description: SYBR Green I displacement fluorescence. To be noted: 137 mM NaCl, 2.7 mM KCl, 10 mM Na2HPO4, 2 mM KH2PO4, pH 7.4, tracer SYBR Green I.

Assay [7] deals with A08 (DNA, aptamer) AGCCTCGTCTGTTCTCCCGGCAGTGTGGGCGAATCTATGCGTACCGTTCGATATCGTGGGGAAGACAAGCAGACGT
Briefly: SYBR Green I displacement fluorescence. The conditions noted are these: 137 mM NaCl, 2.7 mM KCl, 10 mM Na2HPO4, 2 mM KH2PO4, pH 7.4, tracer SYBR Green I.

Assay [8] shares this test system. Briefly: magnetic beads isocratic elution, fluorescence. To be noted: 137 mM NaCl, 2.7 mM KCl; immobilised compound (amine Dynabeads, EDC); 10 mM Na2HPO4, 2 mM KH2PO4, pH 7.4; apparent.
Assay [9] relates to 1.12.2 (DNA, aptamer) GATCGGGTGTGGGTGGCGTAAAGGGAGCATCGGACA
Description: magnetic beads isocratic elution, fluorescence. To be noted: 137 mM NaCl, 2.7 mM KCl; immobilised compound (amine Dynabeads, EDC); 10 mM Na2HPO4, 2 mM KH2PO4, pH 7.4; apparent.

In assay [10] the test system is Non-specific control (DNA, single strand) AGCACGTTGGTAGGTCGGTTTGGGTTTCGTGC
Description: SYBR Green I displacement fluorescence. To be noted: 137 mM NaCl, 2.7 mM KCl; 10 mM Na2HPO4, 2 mM KH2PO4, pH 7.4; tracer SYBR Green I; highest OTA about 0.18 µM.

The test system of assay [11] is B08 (DNA, aptamer) AGCCTCGTCTGTTCTCCCGGCGCATGATCATTCGGTGGGTAAGGTGGTGGTAACGTTGGGGAAGACAAGCAGACGT
Description: magnetic beads isocratic elution, fluorescence. To be noted: 137 mM NaCl, 2.7 mM KCl; immobilised compound (amine Dynabeads, EDC); 10 mM Na2HPO4, 2 mM KH2PO4, pH 7.4; apparent.

[12] abbreviates: compared at 30 and 100 nM, highest about 0.18 µM.

SMILES strings stand for the structures.

On to `CCCN(CCCN(C)C)c1cc(C=C2Sc3ccccc3N2C)c2ccccc2[n+]1-c1ccccc1`, for which the binding entry in assay [1], in [2], in assay [3] and in assay [4] was “yes” in each case.

As to `CC(=O)CC(c1ccccc1)c1c(O)c2ccccc2oc1=O` (stereo not shown), the binding result is listed as “no” in assay [5] (setting [12]), “weak” in assay [6] (OTA signal 2–3 fold larger) and “no” in assay [7] (setting [12]).

With `C[C@@H]1Cc2ccc(C(=O)N[C@@H](Cc3ccccc3)C(=O)O)c(O)c2C(=O)O1`, the binding entry in [5] (OTA signal 6–10 fold larger), in [6] (OTA signal 2–3 fold larger) and in [7] (OTA signal 6–10 fold larger) was “weak” each time.

As for `C[C@@H]1Cc2c(Cl)cc(C(=O)N[C@@H](Cc3ccccc3)C(=O)O)c(O)c2C(=O)O1`, the KD in assay [8] is reported as 290 ± 150 nM; in assay [9], 370 ± 250 nM; in assay [11], 110 ± 50 nM. In addition, the values for the binding result in [5] (linear signal to 100 nM OTA), in assay [10] and in [6] were “yes”, “no” and “yes”, respectively.

(Values after publication PMC4147592 (2014).)
